In assay [1] the test system is Fusarium oxysporum. As to the kind of experiment: Kirby-Bauer disk diffusion test, Fusarium oxysporum. As to the method: (§1) The microbiological tests were carried out by applying Kirby-Bauer Disk Diffusion Susceptibility Test Protocol for antimicrobial activity. It is based on the formation of a concentration gradient in the growth medium during the diffusion of the active substance from the antibiogram disc (Kirby-Bauer method).
(§2) The performance of the embodiments of the present inventions and their mixtures enriched with millbase (MFA) was analysed against the appropriate reference substance, i.e., a commercial product containing the analogue active substance with the same concentration. The prepared solutions were applied on the paper antibiograms. Then the soaked antibiograms were placed on the Petri Dishes (dish diameter 90 mm) with the growth medium for fungal pathogens V8. Composition of V8: agar, calcium carbonate and multi-vegetable juice. 3 fragments of mycelium of the tested pathogen (5×5 mm) were transplanted onto the prepared medium. As a result, the zones where the fungal growth was inhibited have been measured and compared respectively with the control sample and the analogue active substance sample.
(§3) Assessment was carried out by determining the infested area of the Petri dish in %. These percentages have been converted into efficacy (W) according to Abbot's formula as follows: W=(1−α/β)×100 • where: • α—corresponds to the mycelium/bacterial growth of each tested sample [%], • β—corresponds to the mycelium/bacterial growth in control sample [%].
(§4) In order to estimate if the combined action effect with the commercial fungicide, the W parameter of the mixture was compared with W parameter for particular commercial fungicide solo. Where W=0 the efficacy of the control sample (whole Petri dish covered with mycelium), and W=100 is when no mycelium growth observed.
On the technique in general: A growth-free zone around the sample is the usual read-out of agar diffusion tests.

Assay [2] relates to Phytophthora megasperma. The assay can be described thus: Kirby-Bauer disk diffusion test, Phytophthora megasperma. The settings on record: for EFFICACY W (Abbot): control W=0, no growth W=100. The protocol: as §1, §2, §3, §4
Assay [3] concerns Colletotrichum gloeosporioides. As to the kind of experiment: Kirby-Bauer disk diffusion test, Colletotrichum gloeosporioides. The settings on record: for EFFICACY W (Abbot): control W=0, no growth W=100. As to the method:
as §1, §2, §3, §4

The subject of assay [4] is Alternaria infectoria/alternata. The assay can be described thus: Kirby-Bauer disk diffusion test, Alternaria infectoria/alternata. As to conditions: for % mycelium growth relative to the control / mycelium growth: V8 medium; for mycelium growth: control 8.6 cm; for EFFICACY W (Abbot): control W=0, no growth W=100. As to the method:
as §2, §3, §4

The subject of assay [5] is Botrytis cinerea. The assay can be described thus: Kirby-Bauer disk diffusion test, Botrytis cinerea. As to conditions: for % mycelium growth relative to the control / mycelium growth: V8 medium; for mycelium growth: control 8.6 cm; for EFFICACY W (Abbot): control W=0, no growth W=100. As to the method:
as §2, §3, §4

Assay [6] concerns Fusarium equiseti. As to the kind of experiment: Kirby-Bauer disk diffusion test, Fusarium equiseti. As to conditions: for % mycelium growth relative to the control / mycelium growth: V8 medium; for mycelium growth: control 8.6 cm; for EFFICACY W (Abbot): control W=0, no growth W=100. The protocol: as §2, §3, §4
In assay [7] the test system is Phytophthora cactorum. The assay can be described thus: Kirby-Bauer disk diffusion test, Phytophthora cactorum. Set-up: % mycelium growth relative to the control: concentration or dose not given beside the values. As to conditions: for % mycelium growth relative to the control / mycelium growth: V8 medium; for mycelium growth: control 5.4 cm; for EFFICACY W (Abbot): control W=0, no growth W=100. As to the method:
as §2, §3, §4

The test system of assay [8] is Rhizoctonia solani. The assay can be described thus: Kirby-Bauer disk diffusion test, Rhizoctonia solani. As to conditions: for % mycelium growth relative to the control / mycelium growth: V8 medium; for mycelium growth: control 8.6 cm; for EFFICACY W (Abbot): control W=0, no growth W=100. The protocol: as §2, §3, §4
Assay [9] has as its system Monilinia fructigena. The assay can be described thus: Kirby-Bauer disk diffusion test, Monilinia fructigena. The settings on record: for % mycelium growth relative to the control / mycelium growth: V8 medium; for mycelium growth: control 5.4 cm; for EFFICACY W (Abbot): control W=0, no growth W=100. The protocol: as §2, §3, §4
Assay [10] deals with Sclerotinia sclerotiorum. As to the kind of experiment: Kirby-Bauer disk diffusion test, Sclerotinia sclerotiorum. As to conditions: for % mycelium growth relative to the control / mycelium growth: V8 medium; for mycelium growth: control 8.6 cm; for EFFICACY W (Abbot): control W=0, no growth W=100. The protocol: as §2, §3, §4
Assay [11] relates to Venturia inaegualis. As to the kind of experiment: Kirby-Bauer disk diffusion test, Venturia inaequalis. As to conditions: for EFFICACY W (Abbot): control W=0, no growth W=100. As to the method:
as §1, §2, §3, §4

Assay [12] concerns Septoria nodorum (1291). The assay can be described thus: Kirby-Bauer disk diffusion test, Septoria nodorum (1291). As to the method: as §2, §3, §4
Assay [13] concerns Fusarium graminearum.
Assay [14] has as its system Verticillium longisporum. The assay can be described thus: Kirby-Bauer disk diffusion test, Verticillium longisporum. The protocol:
as §2, §3, §4

For assay [15], the system named is Septoria tritici. As to the kind of experiment: Kirby-Bauer disk diffusion test, Septoria tritici. The protocol:
as §2, §3, §4

The test system of assay [16] is Phytium ultimum. As to the kind of experiment: Kirby-Bauer disk diffusion test, Phytium ultimum. The protocol: as §2, §3, §4
Where [17] appears, read: Colletotrichum gloeosporioides, V8 medium.
The mark [18] stands for this setting: Colletotrichum gloeosporioides, V8 medium, control 5.4 cm.
The mark [19] stands for this setting: Venturia inaegualis, V8 medium, control 2.9 cm.
[20] abbreviates: Phytophthora megasperma, V8 medium.
The mark [21] stands for this setting: Phytophthora megasperma, V8 medium, control 5.4 cm (8.6 cm in Table 25).

`c1ccc2[nH]c(-c3cscn3)nc2c1` [Thiabendazole, thiabendazole, reference compound]: the activity at 500000 µg/mL in assay [1] (Fusarium oxysporum, thiabendazole 500 g/L, read-out: % mycelium growth relative to the control) was 84%; in assay [2] (Phytophthora megasperma, thiabendazole 500 g/L, read-out: % mycelium growth relative to the control), 48%; in [3] (Colletotrichum gloeosporioides, thiabendazole 500 g/L, read-out: % mycelium growth relative to the control), 0%. Besides, the inhibition of growth at 500000 µg/mL came out at 16% in assay [1] (Fusarium oxysporum, thiabendazole 500 g/L, read-out: EFFICACY W (Abbot)); 52% in assay [2] (Phytophthora megasperma, thiabendazole 500 g/L, read-out: EFFICACY W (Abbot)); 100% in assay [3] (Colletotrichum gloeosporioides, thiabendazole 500 g/L, read-out: EFFICACY W (Abbot)). In addition, the mycelium growth in assay [1] (thiabendazole 500 g/L) stood at 7.2 cm; in [2] (thiabendazole 500 g/L), 2.6 cm; in [3] (thiabendazole 500 g/L) it was 0 cm.

`O=[N+]([O-])c1cc(C(F)(F)F)c(Cl)c([N+](=O)[O-])c1Nc1ncc(C(F)(F)F)cc1Cl` [fluazinam (200)]: the “% mycelium growth relative to the control” value in assay [4] turned out to be 40%; in assay [5], 100%; in assay [6], 80%; in assay [3] (setting [17]), 0%; in assay [7], 33%; in assay [8], 100%. Moreover, the results for the “% mycelium growth relative to the control” value in [9] and in [10] were 0% and 100%, respectively. The mycelium growth in [4] is listed as 3.4 cm; in assay [5], 8.6 cm; in assay [6], 6.9 cm; in [3] (setting [18]), 0 cm; in assay [7], 1.8 cm; in [8], 8.6 cm. Also, the mycelium growth in [9] was found to be 0 cm; in assay [10], 8.6 cm. Moreover, the “EFFICACY W (Abbot)” value came out at 60 in assay [4]; 0 in assay [5]; 20 in assay [6]; 100 in assay [3] (Colletotrichum gloeosporioides); 67 in assay [7]; 0 in assay [8]. Also, the “EFFICACY W (Abbot)” value in assay [9] came to 100; in assay [10], 0.

On to `O=C(NCCc1ncc(C(F)(F)F)cc1Cl)c1ccccc1C(F)(F)F` [Fluopyram (500)], for which the “% mycelium growth relative to the control” value was determined as 100% in [1] (Fusarium oxysporum, V8 medium); 0% in assay [11] (Venturia inaegualis, V8 medium); 55% in assay [4]; 65% in assay [2] (setting [20]); 61% in assay [12] (V8 medium); 66% in assay [13] (V8 medium). Moreover, the “% mycelium growth relative to the control” value in assay [14] (V8 medium) is reported as 95%; in assay [6], 79%; in assay [7] it was 72%; in [15] (V8 medium), 0%; in assay [8], 100%; in assay [9], 30%. In addition, the “% mycelium growth relative to the control” value in [10] was found to be 100%. Besides, the mycelium growth in assay [1] (Fusarium oxysporum, V8 medium, control 8.6 cm) is 8.6 cm; in assay [11] (setting [19]), 0 cm; in assay [4] it was 4.7 cm; in assay [2] (setting [21]), 3.5 cm; in assay [12] (V8 medium, control 5.4 cm), 3.3 cm; in assay [13] (V8 medium, control 8.6 cm), 5.7 cm. In addition, the mycelium growth in assay [14] (V8 medium, control 3.9 cm) is reported as 3.7 cm; in assay [6], 6.8 cm; in assay [7], 3.9 cm; in assay [15] (V8 medium, control 1.9 cm), 0 cm; in assay [8] it was 8.6 cm; in assay [9] it was 1.6 cm. Also, in assay [10], the mycelium growth is recorded as 8.6 cm. For the same compound, the “EFFICACY W (Abbot)” value was 0 in assay [1] (Fusarium oxysporum, control W=0, no growth W=100); 100 in assay [11] (Venturia inaegualis); 45 in assay [4]; 35 in [2] (Phytophthora megasperma); 39 in assay [12] (control W=0, no growth W=100); 34 in [13] (control W=0, no growth W=100). Further, the “EFFICACY W (Abbot)” value worked out at 5 in assay [14] (control W=0, no growth W=100); 21 in assay [6]; 28 in [7]; 100 in assay [15] (control W=0, no growth W=100); 0 in assay [8]; 70 in assay [9]. Besides, in [10], the “EFFICACY W (Abbot)” value is on record as 0.

Take `CCCCCCCCCCCCNC(=N)N` [Dodine, dodine, reference compound]: in assay [11] (Venturia, dodine 680 g/L, read-out: % mycelium growth relative to the control), the activity at 680000 µg/mL was found to be 55%. The inhibition of growth at 680000 µg/mL (stock) in assay [11] (Venturia, dodine 680 g/L, read-out: EFFICACY W (Abbot)) turned out to be 45%. The compound also had a mycelium growth in [11] (dodine 680 g/L) of 1.6 cm.

As to `Cc1ccc(-c2c(Cl)nc(C#N)n2S(=O)(=O)N(C)C)cc1` [Cyazofamid (80)], the “% mycelium growth relative to the control” value in assay [2] (setting [20]) was 100%; in [7] it was 63%; in [16] (V8 medium), 66%. Moreover, the mycelium growth is given as 5.4 cm in assay [2] (setting [21]); 3.4 cm in assay [7]; 5.7 cm in assay [16] (V8 medium, control 8.6 cm). Moreover, the “EFFICACY W (Abbot)” value in assay [2] (Phytophthora megasperma) stood at 0; in assay [7], 37; in assay [16] (control W=0, no growth W=100), 76.

For `O=C1C2CC=CCC2C(=O)N1SC(Cl)(Cl)Cl` (stereo not drawn) [Captan (1500)], the “% mycelium growth relative to the control” value in assay [11] (Venturia inaegualis, V8 medium) was 38%; in [5], 70%; in assay [3] (setting [17]), 11%; in [9] it was 33%. Further, the mycelium growth in [11] (setting [19]) turned out to be 1.1 cm; in assay [5], 6 cm; in assay [3] (setting [18]) it was 0.6 cm; in assay [9], 1.8 cm. In addition, the “EFFICACY W (Abbot)” value in assay [11] (Venturia inaegualis) is given as 62; in [5], 30; in assay [3] (Colletotrichum gloeosporioides), 89; in assay [9] it was 67.

Values taken from patent US20260344673A1, “A SOLID FORM FOR PREPARATION OF AN AQUEOUS DISPERSION, AQUEOUS DISPERSION, STABLE CONCENTRATE, COMBINED AQUEOUS DISPERSION, AND USES THEREOF” (priority 2022, published 2026).
